We go through 3 compounds from ChEMBL document CHEMBL1201862, “PubChem BioAssay data set” (2004).

By IC50 is commonly meant the concentration needed to halve the response being measured. One may read the CC50 as the concentration at which the toxic effect on the cells reaches its halfway point. One may read the AC50 as the concentration at which the activity in the assay is half-maximal. As a reminder, the EC50 is the midpoint of the concentration-response curve.

Activity calls are given as the source filed them. Unless noted, the rule behind the calls is not given here. Bounds are passed on as bounds.

For experiment [1], the system named is MDCK. Description: antiviral activity against H1N1 influenza, dose response, cell-based, strain KY136 (AID 540257). It is filed as functional. Particulars: Canis lupus familiaris.
The subject of experiment [2] is MDCK. Description: MDCK cell cytotoxicity, dose response, cytotoxicity control (AID 540296). It is filed as functional. The settings on record: Canis lupus familiaris.
The test system of another experiment is Vero. Description: Vero E6 cell cytotoxicity, dose response, cytotoxicity control (AID 540298). It is filed as functional. Particulars: Chlorocebus sabaeus.
Experiment [3] deals with MDCK. Description: antiviral activity against H1N1 influenza, dose response, cell-based, strain KY180 (AID 540254). Particulars: Canis lupus familiaris. It is filed as functional.
A further experiment deals with INS1. Description: INS-1E survival protection against cytokine death – cell-based, luminescence, retest, dose response (AID 449756).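 Also: cell death triggered by IL-1 beta plus TNF-alpha plus IFN-gamma mixture; protective hits raise ATP signal compared with cytokine alone wells.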 The settings on record: Rattus norvegicus. The class given is functional.
A further experiment deals with T1, Protein RecA (Mycobacterium tuberculosis, UniProt P9WHJ3).
T1 sequence (P9WHJ3 whole entry): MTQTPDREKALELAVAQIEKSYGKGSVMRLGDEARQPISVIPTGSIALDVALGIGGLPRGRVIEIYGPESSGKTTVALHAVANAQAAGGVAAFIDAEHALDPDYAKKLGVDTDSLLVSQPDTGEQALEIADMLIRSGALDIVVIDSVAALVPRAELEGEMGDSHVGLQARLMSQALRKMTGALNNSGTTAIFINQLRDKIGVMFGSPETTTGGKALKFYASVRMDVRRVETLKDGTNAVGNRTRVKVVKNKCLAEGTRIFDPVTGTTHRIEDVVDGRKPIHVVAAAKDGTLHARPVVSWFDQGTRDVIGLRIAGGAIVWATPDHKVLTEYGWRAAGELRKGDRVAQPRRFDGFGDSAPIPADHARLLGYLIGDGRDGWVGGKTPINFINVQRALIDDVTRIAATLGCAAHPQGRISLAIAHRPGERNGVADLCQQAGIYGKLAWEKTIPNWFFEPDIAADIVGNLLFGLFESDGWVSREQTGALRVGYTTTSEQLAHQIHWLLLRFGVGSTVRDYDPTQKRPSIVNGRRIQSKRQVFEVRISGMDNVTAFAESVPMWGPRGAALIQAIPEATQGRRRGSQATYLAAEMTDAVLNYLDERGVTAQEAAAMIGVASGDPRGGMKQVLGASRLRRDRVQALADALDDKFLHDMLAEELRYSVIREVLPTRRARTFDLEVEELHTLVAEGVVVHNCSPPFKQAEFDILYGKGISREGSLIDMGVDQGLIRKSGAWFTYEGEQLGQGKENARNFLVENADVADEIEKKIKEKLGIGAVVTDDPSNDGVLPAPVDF
Put plainly: Fluorescence Cell-Free Homogeneous Dose Retest to Identify Inhibitors of RecA-Intein Splicing Activity. [Related pubchem assays (depositor defined):AID2097, AID2223, AID489010, AID492950]. It is filed as functional.

Experiment [4] concerns the target T2, Replicative DNA helicase DnaB (Mycobacterium tuberculosis, UniProt P9WMR3).
T2 sequence (P9WMR3 whole entry): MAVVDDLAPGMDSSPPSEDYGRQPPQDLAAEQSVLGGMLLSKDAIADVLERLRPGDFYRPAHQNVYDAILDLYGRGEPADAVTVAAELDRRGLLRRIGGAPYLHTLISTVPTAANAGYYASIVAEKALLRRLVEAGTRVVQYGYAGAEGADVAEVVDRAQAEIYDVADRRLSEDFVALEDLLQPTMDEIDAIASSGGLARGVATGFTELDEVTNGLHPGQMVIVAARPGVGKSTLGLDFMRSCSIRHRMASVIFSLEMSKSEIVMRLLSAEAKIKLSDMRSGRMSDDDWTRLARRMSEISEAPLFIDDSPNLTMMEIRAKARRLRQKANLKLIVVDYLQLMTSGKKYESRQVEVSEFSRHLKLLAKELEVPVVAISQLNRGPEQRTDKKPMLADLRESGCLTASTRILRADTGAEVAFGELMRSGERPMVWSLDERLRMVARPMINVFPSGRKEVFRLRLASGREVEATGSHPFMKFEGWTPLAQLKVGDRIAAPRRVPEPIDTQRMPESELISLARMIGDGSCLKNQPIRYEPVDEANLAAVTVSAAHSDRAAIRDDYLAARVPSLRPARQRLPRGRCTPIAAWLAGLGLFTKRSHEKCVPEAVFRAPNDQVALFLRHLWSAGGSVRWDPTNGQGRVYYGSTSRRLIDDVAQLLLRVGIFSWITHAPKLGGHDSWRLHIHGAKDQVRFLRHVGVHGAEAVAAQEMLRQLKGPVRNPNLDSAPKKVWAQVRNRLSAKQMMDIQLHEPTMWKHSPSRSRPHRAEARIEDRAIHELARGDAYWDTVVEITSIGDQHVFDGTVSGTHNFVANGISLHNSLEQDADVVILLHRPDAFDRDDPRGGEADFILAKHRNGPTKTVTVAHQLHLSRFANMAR
Description: DnaB intein splicing inhibitors, dose response, biochemical, cell-free fluorescence (AID 449749). It is filed as functional.

In the next experiment the target is Keap1/Nrf2 (Homo sapiens, UniProt Q14145). Put plainly: disruptors of Keap1 binding to Nrf2 peptide – biochemical, fluorescence polarization, cherry-picked samples, dose response (AID 588683). In general terms: In fluorescence polarisation assays a small probe gives low polarisation when free and higher when bound to something large.
The target of experiment [5] is T3, Short transient receptor potential channel 4 (Mus musculus, UniProt Q9QUQ5).
T3 sequence (Q9QUQ5 whole entry): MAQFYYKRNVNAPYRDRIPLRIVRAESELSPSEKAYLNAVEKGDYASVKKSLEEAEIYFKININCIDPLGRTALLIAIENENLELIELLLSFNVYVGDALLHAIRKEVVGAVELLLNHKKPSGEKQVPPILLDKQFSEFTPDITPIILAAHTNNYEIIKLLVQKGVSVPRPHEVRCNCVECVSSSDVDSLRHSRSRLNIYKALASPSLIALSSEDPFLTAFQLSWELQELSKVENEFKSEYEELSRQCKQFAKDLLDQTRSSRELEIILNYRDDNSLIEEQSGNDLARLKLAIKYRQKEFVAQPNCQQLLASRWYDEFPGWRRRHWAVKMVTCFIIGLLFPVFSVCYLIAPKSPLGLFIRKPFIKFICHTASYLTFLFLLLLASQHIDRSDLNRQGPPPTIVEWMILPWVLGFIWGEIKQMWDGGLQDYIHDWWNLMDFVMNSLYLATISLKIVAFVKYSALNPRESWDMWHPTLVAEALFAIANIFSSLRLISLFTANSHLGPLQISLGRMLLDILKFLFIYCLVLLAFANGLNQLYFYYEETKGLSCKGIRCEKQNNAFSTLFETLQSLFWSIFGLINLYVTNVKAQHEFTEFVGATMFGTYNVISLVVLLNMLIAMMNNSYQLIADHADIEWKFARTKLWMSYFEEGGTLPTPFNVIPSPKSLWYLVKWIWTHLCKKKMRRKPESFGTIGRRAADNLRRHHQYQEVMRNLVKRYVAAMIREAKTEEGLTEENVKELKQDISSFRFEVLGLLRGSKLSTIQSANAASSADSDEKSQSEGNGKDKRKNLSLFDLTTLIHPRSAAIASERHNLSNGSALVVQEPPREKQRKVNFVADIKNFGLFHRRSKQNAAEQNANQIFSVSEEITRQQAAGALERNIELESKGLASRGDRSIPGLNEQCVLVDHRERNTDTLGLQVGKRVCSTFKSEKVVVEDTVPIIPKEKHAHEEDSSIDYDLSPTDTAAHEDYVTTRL
Put plainly: mouse TRPC4 block via Gq-coupled stimulation – cell-based, acetylcholine stimulus, HEK293 TRPC4, Fluo-4, SAR follow-up (AID 492996). The class given is functional.

Keap1/Nrf2, sequence (Q16236 whole entry): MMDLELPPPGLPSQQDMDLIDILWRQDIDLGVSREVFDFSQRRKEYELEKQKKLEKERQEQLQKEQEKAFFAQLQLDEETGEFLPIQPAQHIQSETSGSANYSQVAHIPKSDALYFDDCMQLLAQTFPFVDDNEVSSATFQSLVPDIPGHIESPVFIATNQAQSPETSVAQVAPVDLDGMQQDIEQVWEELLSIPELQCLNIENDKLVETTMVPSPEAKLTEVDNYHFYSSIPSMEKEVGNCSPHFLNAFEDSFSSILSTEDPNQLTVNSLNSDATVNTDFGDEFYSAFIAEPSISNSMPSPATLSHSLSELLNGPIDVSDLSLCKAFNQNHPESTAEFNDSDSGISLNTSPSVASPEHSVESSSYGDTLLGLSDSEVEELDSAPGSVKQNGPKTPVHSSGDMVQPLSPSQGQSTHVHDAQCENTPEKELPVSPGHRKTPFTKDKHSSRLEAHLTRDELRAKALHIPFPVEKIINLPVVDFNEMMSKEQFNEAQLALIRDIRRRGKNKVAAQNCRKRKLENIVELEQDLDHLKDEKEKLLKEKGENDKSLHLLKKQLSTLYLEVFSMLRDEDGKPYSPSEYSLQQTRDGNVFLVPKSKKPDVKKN
Keap1/Nrf2, sequence (Q14145 whole entry): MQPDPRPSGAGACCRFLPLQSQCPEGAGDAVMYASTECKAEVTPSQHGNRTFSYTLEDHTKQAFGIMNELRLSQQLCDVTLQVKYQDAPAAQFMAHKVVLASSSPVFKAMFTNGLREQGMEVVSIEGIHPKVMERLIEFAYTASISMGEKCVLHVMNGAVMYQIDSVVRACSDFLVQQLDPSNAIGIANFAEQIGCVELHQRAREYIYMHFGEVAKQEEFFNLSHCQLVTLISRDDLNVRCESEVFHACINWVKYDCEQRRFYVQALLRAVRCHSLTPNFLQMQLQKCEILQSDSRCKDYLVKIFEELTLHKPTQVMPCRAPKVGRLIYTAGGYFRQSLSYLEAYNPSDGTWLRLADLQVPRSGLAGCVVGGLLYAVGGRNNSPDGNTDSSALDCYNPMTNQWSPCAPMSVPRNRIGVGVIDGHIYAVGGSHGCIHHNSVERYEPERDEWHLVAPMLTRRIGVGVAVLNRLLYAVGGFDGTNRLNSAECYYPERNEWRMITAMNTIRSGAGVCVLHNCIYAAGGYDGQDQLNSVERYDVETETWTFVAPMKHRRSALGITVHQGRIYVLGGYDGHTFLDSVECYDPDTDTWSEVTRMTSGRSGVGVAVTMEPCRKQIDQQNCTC

Regarding `Cc1nnc(NC(=O)CSc2nccn2-c2cccc(C)c2C)s1`, the figures for the IC50 in the experiment with MDCK [1] and in the experiment with MDCK [3] were 5.1 µM (active) and 10.4 µM (active), respectively. For the same compound, the CC50 in the experiment with MDCK [2] and with Vero was > 40 µM (active) in each case.

For `Cc1ccc(S(=O)(=O)Nc2ccc(O)c3ccccc23)c(C)c1`, the AC50 with INS1 is 5.61 µM (active); in experiment [4] it was 0.132 µM (active); at Keap1/Nrf2, > 52 µM (inactive). The concentration giving a half-maximal response (EC50) on Protein RecA was 0.0702 µM (active).

With `Cc1cc(N2CCN(C)CC2)nc2ccccc12`, the IC50 in [5] was 31.7 µM (active).
